Source: article PMC5571211 (Scientific Reports, 2017)

Assays:
sEH in HepG2 cells = target: T1, sEH in HepG2 cells (Homo sapiens, UniProt P34913); assay: 14,15-DiHETrE formation in HepG2 cells (cell-based sEH assay); details: HepG2 cells; AUDA 5 µM, MK886 0.3 µM, SC57461A 0.3 µM
T1 construct: sEH is constitutively expressed in the human liver cancer cell line HepG2; endogenous in cells; host or cells: HepG2
T1 sequence (P34913 1-555): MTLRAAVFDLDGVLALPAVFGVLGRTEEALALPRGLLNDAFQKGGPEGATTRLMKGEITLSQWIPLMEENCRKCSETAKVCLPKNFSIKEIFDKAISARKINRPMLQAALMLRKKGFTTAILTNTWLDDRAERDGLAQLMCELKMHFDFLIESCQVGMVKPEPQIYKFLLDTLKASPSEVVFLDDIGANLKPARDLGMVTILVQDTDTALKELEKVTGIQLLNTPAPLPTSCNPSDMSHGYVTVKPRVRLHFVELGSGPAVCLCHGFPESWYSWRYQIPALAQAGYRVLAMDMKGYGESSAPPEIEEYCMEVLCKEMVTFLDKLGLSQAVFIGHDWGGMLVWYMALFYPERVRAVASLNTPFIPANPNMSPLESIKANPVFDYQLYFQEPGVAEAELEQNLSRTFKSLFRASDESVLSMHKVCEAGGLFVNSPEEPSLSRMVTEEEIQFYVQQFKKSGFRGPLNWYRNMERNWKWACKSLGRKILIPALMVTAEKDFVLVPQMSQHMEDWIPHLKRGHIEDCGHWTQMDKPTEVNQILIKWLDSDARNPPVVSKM
Description: To assay the activity of sEH in a cell-based model, HepG2 cells were harvested by trypsinization, pelleted (1,200 rpm, 5 min, 4 °C) and resuspended in PGC buffer to a final concentration of 1.5 × 10^6 cells/mL. […] Briefly, samples were acidified with four volumes of MilliQ water pH 3.5 containing PBS-HCl and subjected to Waters Sep-Pak® Vac 6cc columns (Waters, Milford, MA, USA), washed once with MilliQ and hexane, and eluted with methylformiate. The nitrogen-dried samples were dissolved in 50% methanol, and 14,15-DiHETrE formation was measured by UPLC-MS/MS using an Acquity™ UPLC system (Waters, Milford, MA, USA) and a QTRAP 5500 Mass Spectrometer (ABSciex, Darmstadt, Germany) equipped with a Turbo V™ Source and electrospray ionization (ESI). […] Ion spray voltage was set to 4000 V, the heater temperature to 500 °C, the declustering potential to 50–80 eV, the entrance potential to 10 eV, the collision cell exit potential to 10–13 eV, collision energies of 10 eV, the spray gas pressure to 40 psi, medium collision gas and the curtain gas pressure to 35 psi.

[1] = target: T2, co-localization of 5-LOX with FLAP (Homo sapiens, UniProt P20292); assay: Immunofluorescence microscopy of 5-LOX subcellular redistribution / co-localization with FLAP; type: cell-based; details: human neutrophils or monocytes; diflapolin 1 µM, MK886 0.3 µM, zileuton 3 µM
T2 construct: endogenous in cells; host or cells: freshly isolated human monocytes (immunofluorescence also in neutrophils)
T2 sequence (P20292 1-161): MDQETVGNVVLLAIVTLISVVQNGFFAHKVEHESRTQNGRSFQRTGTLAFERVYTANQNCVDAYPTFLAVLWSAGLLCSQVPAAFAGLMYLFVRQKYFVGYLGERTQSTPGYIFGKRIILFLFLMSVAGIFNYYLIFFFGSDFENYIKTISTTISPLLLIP
Description: The incubations were stopped by paraformaldehyde fixation (4%, 20 min, RT) and cells were permeabilized using 100% ice-cold acetone (5 min, 4 °C). Blocking with non-immune goat serum (30 min, RT) was performed prior to overnight incubation (4 °C) with primary monoclonal-mouse-anti-5-LOX antibody (1:100 dilution, a generous gift from Dr. D. Steinhilber, Goethe University Frankfurt, Germany) and polyclonal-rabbit-anti-FLAP antibody (5 µg/mL, Abcam, Cambridge, UK). […] Cells were visualized by a Zeiss Axiovert 200 M microscope, and a Plan Neofluar × 100/1.30 Oil (DIC III) objective (Carl Zeiss, Jena, Germany) and image acquisition was performed using an AxioCam MR camera (Carl Zeiss).

LTC4S = target: T3, LTC4S (Homo sapiens, UniProt Q16873); assay: LTC4S activity in microsomes of LTC4S-expressing HEK293 cells; type: biochemical; details: cell-free, up to 10 µM
T3 construct: expressed in transfected cells; host or cells: HEK293 stably expressing LTC4S (geneticin selection), microsomal fraction
T3 sequence (Q16873 1-150): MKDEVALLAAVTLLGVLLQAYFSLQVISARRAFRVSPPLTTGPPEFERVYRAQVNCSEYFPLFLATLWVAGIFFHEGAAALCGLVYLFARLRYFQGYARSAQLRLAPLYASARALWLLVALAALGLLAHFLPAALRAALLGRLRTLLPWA
Description: LTC4S activity was assayed by using microsomes of HEK293 cells stably expressing LTC4S, as previously published. In brief, HEK293 expressing LTC4S were cultivated as described above and selected using geneticin (400 µg/mL). Isolation of microsomes was performed as described for mPGES-1 above and microsomes were diluted in potassium phosphate buffer (0.1 M, pH 7.4) with glutathione (5 mM) to a final concentration of 2.5 µg protein per mL. […] To determine enzyme activity, acidified PBS and d5-LTC4-methyl ester (5 ng) as internal standard were added prior solid phase extraction and LTC4-methyl ester formation was analyzed by UPLC-MS/MS as described.

| SMILES | effect on sEH in the cell-based sEH assay (sEH in HepG2 cells) | co-localization of 5-LOX with FLAP [1] | inhibition of LTC4S activity (LTC4S) |
| --- | --- | --- | --- |
| CC(C)c1ccc2c(c1)c(SC(C)(C)C)c(CC(C)(C)C(=O)O)n2Cc1ccc(Cl)cc1 [MK886, 3-[1-(4-chlorobenzyl)-3-t-butyl-thio-5-isopropylindol-2-yl]-2,2 - dimethylpropanoic acid] | no impact | neither diflapolin nor the FLAP inhibitor MK886 or the 5-LOX inhibitor zileuton prevented co-localization | – |
| Cc1cc(OCc2nc3ccccc3s2)ccc1NC(=O)Nc1ccc(Cl)c(Cl)c1 [diflapolin, N-[4-(benzothiazol-2-ylmethoxy)-2-methylphenyl]-N′-(3,4-dichlorophenyl)urea] | – | – | failed to inhibit |
